Values of other authors in patent US12036548B2, “Organs-on-chips as a platform for epigenetics discovery” (EMULATE, INC., priority 2018, dated 2024).

Conditions: normal nutritional iodine supply

## II [iodine]
  fraction taken up and stored by a normally functioning thyroid gland: 15-30%
